Legend:
[1] = Antioxidant activity assessed as DPPH free radical scavenging activity at 100 uM after 30 mins by UV-spectrophotometric method relative to control; format: functional
[2] = Antioxidant activity assessed as DPPH free radical scavenging activity at 50 uM after 30 mins by UV-spectrophotometric method relative to control; format: functional
[3] = Antioxidant activity assessed as DPPH free radical scavenging activity at 10 uM after 30 mins by UV-spectrophotometric method relative to control; format: functional
[4] = Inhibition of rat lens ALR2 using D,L-glyceraldehyde as substrate preincubated for 10 mins followed by substrate addition measured for 5 mins

Structure (SMILES)	IC50 [4] [nM]	Activity [1] [%]	Activity [2] [%]	Activity [3] [%]
O=C(O)Cn1c(=O)c(/C=C/c2ccccc2)nc2cccnc21	895	78.9	64.1	35.5
COc1cc(/C=C/c2nc3cc(Br)cnc3n(CC(=O)O)c2=O)ccc1O	389	90.1	75.4	59.6
O=C(O)Cn1c(=O)c(-c2ccc(O)cc2O)nc2cccnc21	185	37.7	–	–
COc1cc(/C=C/c2nc3cccnc3n(CC(=O)O)c2=O)ccc1O	307	85.5	75.6	48.6
COc1cc(CCc2nc3cccnc3n(CC(=O)O)c2=O)ccc1O	689	40.1	25.8	–
O=C(O)Cn1c(=O)c(/C=C/c2ccc(F)cc2)nc2cccnc21	126	42.7	–	–
O=C(O)Cn1c(=O)c(-c2cc(O)c(O)c(O)c2)nc2cccnc21	179	70.7	62.4	34.6
COc1c(O)cc(-c2nc3cccnc3n(CC(=O)O)c2=O)cc1O	319	45.6	–	–
O=C(O)Cn1c(=O)c(-c2cc(O)cc(O)c2)nc2cccnc21	296	30.3	–	–
O=C(O)Cn1c(=O)c(CCc2ccc(O)cc2)nc2cccnc21	918	35.2	–	–
COc1ccc(/C=C/c2nc3cccnc3n(CC(=O)O)c2=O)cc1	1520	52.8	39.1	–
COc1ccc(-c2nc3cccnc3n(CC(=O)O)c2=O)cc1O	2210	32.1	–	–
O=C(O)Cn1c(=O)c(-c2ccccc2)nc2cccnc21	9940	–	–	–
O=C(O)Cn1c(=O)c(-c2ccc(O)c(O)c2)nc2cccnc21	831	50.5	–	–
COc1cc(O)cc(-c2nc3cccnc3n(CC(=O)O)c2=O)c1	5210	–	–	–
O=C(O)Cn1c(=O)c(/C=C/c2ccc(O)c(O)c2)nc2cccnc21	165	89.1	78.4	55.1
Cc1c(C)c2c(c(C)c1O)CCC(C)(C(=O)O)O2 (configuration not stated)	–	96.2	89.6	78.2
COc1cc(-c2nc3cccnc3n(CC(=O)O)c2=O)cc(O)c1OC	578	20.5	–	–
O=C(O)Cn1c(=O)c(-c2ccc(O)cc2)nc2cccnc21	1030	6.5	–	–

Continued by falling IC50 [4], values first:

IC50 [4] [nM]	Structure (SMILES)	Activity [1] [%]	Activity [2] [%]	Activity [3] [%]
108	O=C(O)Cn1c(=O)c(/C=C/c2ccc(O)c(O)c2)nc2cc(Br)cnc21	95.8	82.4	70.8
87	COc1cc(/C=C/c2nc3cc(Cl)cnc3n(CC(=O)O)c2=O)ccc1O	94.9	81.8	62.3
68	O=C(O)Cn1c(=O)c(-c2c(O)cc(O)cc2O)nc2cccnc21	83.5	70.9	40.2
36	O=C(O)Cn1c(=O)c(/C=C/c2ccc(O)c(O)c2)nc2cc(Cl)cnc21	97.1	87.4	74.7
35	O=C(O)Cn1c(=O)c(/C=C/c2ccc(O)cc2)nc2cccnc21	57.6	44.5	–
29	O=C(O)Cn1c(=O)c(/C=C/c2ccc(O)cc2)nc2cc(Br)cnc21	61.2	43.8	–
24	O=C(O)Cn1c(=O)c(-c2ccc(O)cc2O)nc2cc(Br)cnc21	43.5	–	–
18	O=C(O)Cn1c(=O)c(-c2c(O)cc(O)cc2O)nc2cc(Cl)cnc21	85.2	69.8	41.3
13	O=C(O)Cn1c(=O)c(/C=C/c2ccc(O)cc2)nc2cc(Cl)cnc21	66.2	47.5	–
9	O=C(O)Cn1c(=O)c(-c2ccc(O)cc2O)nc2cc(Cl)cnc21	41.5	–	–

— ChEMBL document CHEMBL3856217, “A series of pyrido[2,3-b]pyrazin-3(4H)-one derivatives as aldose reductase inhibitors with antioxidant activity” (Eur J Med Chem, 2016)
